Results reported in a melting point compilation (Tetko et al.; mined from patent text by program, amines drawn as free bases though some values may be those of a salt).

Structure (SMILES) | melting point [°C]
COC(=O)COc1ccc(SCc2cc(-c3ccc(Cl)cc3)on2)c2c1CCC2 | 112 to 114
O=C(Nc1ccc(O)cc1)c1cc(O)cc(O)c1 | 266
CC(C)(C)c1nnc(NN)s1 | 111 to 112
COC(=O)Cn1c(C(=O)Nc2nc(-c3cc(OC)c(Cl)cc3OC)c(CC3CCCCC3)s2)cc2cc(C)cc(C)c21 | 143 to 145
Nc1c(Br)cc(F)cc1[N+](=O)[O-] | 71.5 to 72.5
CC(c1c(F)ccc(F)c1Cl)N1CCNc2ncc(I)cc21 (stereo unspecified) | 166
N#Cc1cc(-c2ccccc2)[nH]c1Sc1ccncc1 | 172 to 174
CC(=O)OC[C@H]1O[C@@H]2[C@@H](Sc3ccc(Cl)cc3N2C)[C@@H](OC(C)=O)[C@@H]1OC(C)=O | 217 to 218
NC(=O)c1cc2cc(F)c(F)cc2o1 | 217
CCOC(=O)c1ncn2c1CNC(=O)c1cc(OC)ccc1-2 | 240
O=C(CNC(=O)c1ccc(C2=NOC(c3cc(Cl)cc(C(F)(F)F)c3)(C(F)(F)F)C2)c2ccccc12)NCC(F)(F)F (stereo unspecified) | 107 to 108
CCCCCCCCS(=O)(=O)NC(Cc1cc2c(N)nccc2s1)C(=O)N1CCC(C)CC1 (stereo unspecified) | 101 to 112
O=C(O)CS(=O)(=O)c1ccc2c(-c3ccccc3F)noc2c1 | 168 to 169
CC(C)C(=O)c1ccc(F)cc1O | 160
O=CCCCOC(c1ccccc1)(c1ccccc1)c1ccccc1 | 62 to 65
CC(C)CSc1nc2c(cc1C#N)C(=O)CC(C)(C)C2 | 75 to 76
O=C1NC(=O)c2c1c(-c1cc([N+](=O)[O-])ccc1O)cc1[nH]c3ccc(O)cc3c21 | > 330
CC=Cc1ccccc1Oc1ccc(Oc2ccccc2C=CC)nn1 | 165 to 168
Cc1ccccc1-c1c(C(=O)N(C)Cc2cc(C(F)(F)F)cc(C(F)(F)F)c2)c(=O)oc2ccccc12 | 130 to 131
CC1CN(C(=O)N(c2ccccc2)c2ccccc2)CCN1C(=O)N(c1ccccc1)c1ccccc1 (stereo unspecified) | 200 to 202

Structure (SMILES) | melting point [°C]
c1ccc2c(c1)CC(CN1CCC(c3c[nH]c4ccccc34)CC1)C2 | 146 to 147
Cc1c(CC(N)=O)c2cc(OCCCP(=O)(O)O)ccc2n1Cc1ccccc1 | 199 to 203
CN(C)c1cccc2nc3cccc(C(=O)O)c3nc12 | 186 to 188
Cc1cc(C(F)(F)C(F)(F)C(F)(F)C(F)(F)F)ccc1NC(=O)c1cccc(Br)c1C(=O)NC(C)C | 190 to 191
Cc1cc(Nc2cc(Cl)nc(-c3ccccc3)n2)[nH]n1 | 235 to 236
CC(=NOc1ccc(F)cc1)c1cc(Cl)ccc1NS(=O)(=O)C(F)(F)F | 71 to 73
Cc1cccc(C)c1NC(=O)CCS(=O)(=O)c1cc(C(C)(C)C)c(O)c(C(C)(C)C)c1 | 218 to 219
CCc1cc(Br)cc(NC(=O)C=NO)c1 | 176 to 178
Cc1ccc2c(c1Cl)C(=O)N(C1(C(N)=O)CCCCC1)C2=O | 192 to 208
CCn1c(Cc2ccc(C)cc2)nnc1[C@@H](C)NS(=O)(=O)c1ccc(Cl)c(Cl)c1 | 189 to 191
CN(C)C1CC2(C)C(=O)CCC2C2CCC3CC(O)CCC3(C)C21 (stereo unspecified) | 135 to 136
Cc1c(CCO)c(=O)oc2cc(O)cc(O)c12 | 243 to 245
Cc1nnc(-c2ccc3occ(-c4cccc(OC(F)(F)F)c4)c3n2)o1 | 146 to 147
c1ccc2c(c1)N=C(N1CCCCC1)c1cscc1N2 | 157 to 159
CS(=O)(=O)c1cccc(Nc2cc(-c3ccc(C(F)(F)F)cc3)ncn2)c1 | 204 to 205
CSc1nc(N)c2nsnc2n1 | 197 to 199
COc1cc(C)ccc1-c1cc2ccccc2[nH]1 | 125
COCCOCCOc1ccc2c(c1)S(=O)(=O)N(CCl)C2=O | 113 to 115
CC(=NNc1ccc(C2=NNC(=O)CC2)cc1)c1ccnnc1 | 258 to 260
O=C1CC(O)CC(/C=C/c2cccc(Cl)c2Cl)O1 (stereo unspecified) | 122 to 123

Structure (SMILES) | melting point [°C]
CNC(CC(C)C)c1nc(-c2ccc3c(c2)Nc2ccccc2S3)cs1 (stereo unspecified) | 146 to 148
Cc1ccc(-c2cncnc2C#N)cc1 | 107 to 109
CCCCCCCOCC1OC1CO (stereo unspecified) | 50 to 52
COC(=O)N(C)c1cccc(C(=O)C=CN(C)C)c1 | 93 to 95
CC12CCC3c4ccc(OC(=O)Cc5ccccc5)cc4CCC3C1CCC2=O (stereo unspecified) | 114 to 116
CCOC(=O)c1ccc(C=C2C=CN(CC)c3ccccc32)c([N+](=O)[O-])c1 | 100
Cc1cc([N+](=O)[O-])cc2c1OCC2 | 80 to 81
Nc1nc(N)nc(N2CCOCC2)n1 | 248 to 250
Nc1nc(N)nc(-c2ccc(C(O)c3ccccc3)cc2)n1 (racemic) | 214 to 216
CCCN1C(=O)C2CC(c3ccc([N+](=O)[O-])cc3)(C2)C1=O | 149 to 151
CCOC(=O)COc1ccc(-c2nc(-c3ccc(C)cc3)nc(-c3ccc(C)cc3)n2)c(O)c1 | 166 to 167
CCc1c2c(nc3cc(F)c(OC)cc13)-c1cc3c(c(=O)n1C2)COC(=O)CC3(O)CC (stereo unspecified) | > 275
Cc1oc(-c2ccccc2)nc1COc1cccc(COc2nn(Cc3ccccc3)cc2C=O)c1 | 131 to 132
O=C1Cc2cc3ccccc3nc2N1 | 261
Cc1cccc(NC(=O)c2ccc(C(=O)N3Cc4cccn4Cc4ccccc43)cc2)c1C | 239 to 240
NC(=O)c1ccc(OCCNCC(O)c2ccccc2)cc1O (stereo unspecified) | 141 to 142
C[C@@H](N(CC(=O)O)C(=O)c1ccc(OC(F)(F)F)cc1)[C@](O)(Cn1cncn1)c1ccc(F)cc1F (relative stereo) | 99 to 105
O=C(N1CC(CCl)c2c1ccc1ccccc21)C(F)(F)F (stereo unspecified) | 185
Cc1cncc(CC(=O)c2ccccc2)c1 | 53 to 54
COCn1c(C)nc2c3c(c(C(=O)N(C)C)cc21)CCC(c1ccccc1)O3 (stereo unspecified) | 213 to 215

Second part, the molecule after the results:

melting point [°C] | Structure (SMILES)
172 to 173 | COc1ccc(S(=O)(=O)N2C(=O)C(N)(c3ccccc3OC)c3cc(Cl)ccc32)c(OC)c1 (stereo unspecified)
120 to 121 | Nn1nc(-c2ccc(Cl)cc2)cc1OCCN1CCOCC1
93 to 96 | CC(C)(C)c1cc2c(s1)Nc1ccccc1N=C2N1CCN[C@@H](CCc2ccccc2)C1
114 to 115 | Cc1cccc(/C(N)=C2\Sc3ccccc3C2=O)c1
98 | Cc1ccc(S(N)(=O)=O)cc1C(O)CN=[N+]=[N-] (stereo unspecified)
296 to 297 | N#Cc1ccc(-c2cc3c(Cl)ncnc3[nH]2)cc1
136 to 138 | C[C@H](NC(=O)c1ccc([N+](=O)[O-])cc1F)C(=O)O
80 | CCN(CC)C(=O)n1cnc(Sc2cc(F)c(C#N)cc2F)n1
121 to 127 | CC(O)c1sc(S(N)(=O)=O)cc1S(C)(=O)=O (stereo unspecified)
118 to 119 | O=C(O)CSC(CCCc1ccccc1)c1ccc(OCc2ccc3ccccc3n2)cc1 (stereo unspecified)
48 to 50 | Cc1nc(N2CCCN(Cc3ccc(F)cc3)C2=O)sc1C(=O)NCc1cccnc1
215 to 216 | Cn1c(=O)nc(-c2ccccc2)c2c3c(sc21)CCCC3
180 to 182 | CCC(O)CN1CCC2(CC1)CSC1=C(O2)c2ccccc2C(=O)C1=O (stereo unspecified)
194 to 195 | CC(C)C1COCc2nc3c(N)nc4cc(OCCN5CCOCC5)ccc4c3n21 (stereo unspecified)
256 to 258 | COCCCNC(=O)c1[nH]c(C)c(-c2nc3ccc(C(=O)c4ccccc4)cc3[nH]2)c1C
75 to 76 | CCc1cc(-n2cncn2)ncn1
105 to 106 | COc1cc([N+](=O)[O-])c(C(OC(=O)C(Cl)(Cl)Cl)c2ccccc2)c([N+](=O)[O-])c1OC (stereo unspecified)
110 to 111 | CN1CCN(c2cccc3ccc(OC(=O)c4ccc(Cl)cc4)cc23)CC1
248 to 249 | COc1ccc2c(c1)c(-c1cc3c(-c4cccnc4)ccnc3[nH]1)cn2C
254 to 256 | Oc1ccc2oc(-c3ccc(O)c(Cl)c3)nc2c1
198 to 200 | O=C(NC(=O)c1c(Cl)cccc1Cl)Nc1cc(Cl)c(OC(F)(F)C(F)Cl)cc1Cl (stereo unspecified)

melting point [°C] | Structure (SMILES)
150 | c1ccc(-c2cn(C3CCCN4CCCCC34)nn2)cc1 (stereo unspecified)
180 | CCCCC(=O)N[C@H]1CC[C@H](CCN2CCN(c3nccc4c3CCO4)CC2)CC1
211 to 212 | O=C(Nc1ccccc1)c1cccc(-c2ccnc3c(C(=O)c4cccs4)cnn23)c1
197 to 200 | CCNC(=O)Nc1cn(-c2cccnc2)nc1C
248 | FC1=CC2NC(=S)CCC2C=C1c1cccnc1 (stereo unspecified)
240 to 242 | CC(C)=CC(=O)N1CC(NC(=O)Nc2cccc(C(=O)O)c2)C(=O)N(CC(=O)c2ccccc2C)c2cc(C)ccc21 (stereo unspecified)
79.5 to 81 | Cc1ccnc(N)c1C
112 to 113 | COc1cc(OC)cc(OCCCCCN2CCC(CNC(=O)c3cc(Cl)c(N)cc3OC)CC2)c1
132 | CCOc1nc(O)c(C#N)s1
219 to 220 | CC(C)Cn1c(CNC(=O)OC(C)(C)C)c(-c2ccccc2)c2cc(OC(C)(C)C(N)=O)ccc2c1=O
166 to 167 | O=C(O)C1CCc2ccc3[nH]ccc3c21 (stereo unspecified)
145 to 147 | O=C1CCC(N2Cc3c(OCc4ccc(CN5CCN(S(=O)(=O)C6CC6)CC5)cc4)cccc3C2=O)C(=O)N1 (stereo unspecified)
158 to 160 | CCOCc1nc2c(N)nc(C)c(C)c2n1CCC1CCN(C(=O)N2CCOCC2)CC1
> 260 | COC(=O)c1cccn1-c1cc2[nH]c(=O)c(=O)[nH]c2cc1Cl
140 to 141 | O=C(NCCCCOc1ccc(-n2ccnc2)cc1)c1ccc(Br)cc1
93 | CC(=O)SCC(C(=O)NC(C)C(=O)O)C(C)c1ccc(F)cc1 (stereo unspecified)
80 to 81 | COC(=O)c1ccc(-n2cc3ccccc3n2)cc1
142 to 144 | CCN1CCN(CCCC#Cc2cn(Cc3ncc(C)c(OC)c3C)c3nc(N)nc(Cl)c23)CC1
104 to 105 | N#CC1CCN1C(c1ccccc1)c1ccccc1 (stereo unspecified)
120 | CCCNCCOc1ccc(NC(=O)c2n[nH]c3c2C(=O)CCC3)cn1
